# According to ChEMBL document CHEMBL1148299 (J Med Chem, 2004):
# pIC50, pKi: −log10 of the molar value.
# Columns and labels:
# Rattus norvegicus [1] = assay: Area under curve value 6 hr after po administration in rat; type: ADME, organism-based; parameters: time < 6 hr, route oral; concentration or dose not given beside the values; conditions: in vivo
# [2] = molecular target: T1, Muscarinic acetylcholine receptor M1 (Homo sapiens, UniProt P11229); assay: Antagonistic activity against muscarinic M1 receptor; type: functional
# T1 sequence (P11229 whole entry): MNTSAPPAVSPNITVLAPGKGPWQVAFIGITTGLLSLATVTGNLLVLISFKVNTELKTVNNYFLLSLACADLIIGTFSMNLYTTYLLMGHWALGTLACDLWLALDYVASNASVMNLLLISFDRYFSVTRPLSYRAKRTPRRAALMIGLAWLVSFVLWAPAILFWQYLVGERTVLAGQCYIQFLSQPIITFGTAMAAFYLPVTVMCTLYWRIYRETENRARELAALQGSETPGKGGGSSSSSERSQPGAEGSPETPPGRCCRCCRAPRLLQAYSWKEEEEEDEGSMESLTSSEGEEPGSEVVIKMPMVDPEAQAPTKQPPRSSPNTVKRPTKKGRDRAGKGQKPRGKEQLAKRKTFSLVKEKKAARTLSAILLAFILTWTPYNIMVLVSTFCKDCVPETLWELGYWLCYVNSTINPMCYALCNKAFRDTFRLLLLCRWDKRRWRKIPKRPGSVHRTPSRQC
# [3] = molecular target: Muscarinic acetylcholine receptor M3 (Homo sapiens, UniProt P20309); assay: Antagonistic activity against muscarinic M3 receptor; type: functional
# Sequence of Muscarinic acetylcholine receptor M3 (P20309 whole entry): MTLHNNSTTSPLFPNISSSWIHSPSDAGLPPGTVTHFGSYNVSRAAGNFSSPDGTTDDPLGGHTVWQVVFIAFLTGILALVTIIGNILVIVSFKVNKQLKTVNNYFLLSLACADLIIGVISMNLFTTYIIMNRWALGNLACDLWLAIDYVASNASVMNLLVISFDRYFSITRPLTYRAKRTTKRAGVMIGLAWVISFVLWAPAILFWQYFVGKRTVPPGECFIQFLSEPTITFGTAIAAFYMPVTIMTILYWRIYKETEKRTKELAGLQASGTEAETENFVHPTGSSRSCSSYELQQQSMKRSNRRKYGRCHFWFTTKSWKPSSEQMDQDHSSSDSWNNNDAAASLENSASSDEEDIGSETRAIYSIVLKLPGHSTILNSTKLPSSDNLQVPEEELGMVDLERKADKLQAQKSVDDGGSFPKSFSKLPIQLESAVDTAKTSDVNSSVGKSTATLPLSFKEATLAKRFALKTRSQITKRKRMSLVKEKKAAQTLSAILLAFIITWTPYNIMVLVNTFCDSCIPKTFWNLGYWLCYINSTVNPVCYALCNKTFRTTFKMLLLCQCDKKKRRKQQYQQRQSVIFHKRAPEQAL
# [4] = (§1) Compound was tested for the inhibition of HIV-1 301657 clinical isolate in PBMC cultures; type: functional; conditions: Homo sapiens
# [5] = (§2) Compound was tested for the inhibition of HIV-1 ADA-M clinical isolate in PBMC cultures; type: functional; conditions: Homo sapiens
# [6] = (§3) Compound was tested for the inhibition of HIV-1 JV1083 clinical isolate in PBMC cultures; type: functional; conditions: Homo sapiens
# [7] = (§4) Compound was tested for the inhibition of HIV-1 JrFL clinical isolate in PBMC cultures; type: functional; conditions: Homo sapiens
# [8] = (§5) Compound was tested for the inhibition of HIV-1 RU 570 clinical isolate in PBMC cultures; type: functional; conditions: Homo sapiens
# [9] = Compound was tested for inhibiting the entry of replication deffective HIV-1 (YU-2) in to […] cells; type: functional, cell-based; conditions: Homo sapiens
# [10] = molecular target: C-C chemokine receptor type 5 (Homo sapiens, UniProt P51681); assay: Antagonistic activity against C-C chemokine receptor type 5; type: functional
# Sequence of C-C chemokine receptor type 5 (P51681 whole entry): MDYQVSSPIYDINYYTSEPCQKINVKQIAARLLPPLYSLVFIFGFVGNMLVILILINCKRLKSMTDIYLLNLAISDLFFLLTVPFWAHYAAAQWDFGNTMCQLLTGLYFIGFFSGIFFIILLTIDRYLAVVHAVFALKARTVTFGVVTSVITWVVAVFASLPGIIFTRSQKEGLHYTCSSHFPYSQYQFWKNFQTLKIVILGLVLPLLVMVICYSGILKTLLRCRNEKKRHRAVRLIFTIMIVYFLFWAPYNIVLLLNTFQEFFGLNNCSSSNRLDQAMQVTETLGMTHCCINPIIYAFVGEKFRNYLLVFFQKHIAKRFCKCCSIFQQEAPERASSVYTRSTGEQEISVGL
# [11] = molecular target: T2, Muscarinic acetylcholine receptor M2 (Homo sapiens, UniProt P08172); assay: Antagonistic activity against Muscarinic acetylcholine receptor M2; type: functional
# T2 sequence (P08172 whole entry): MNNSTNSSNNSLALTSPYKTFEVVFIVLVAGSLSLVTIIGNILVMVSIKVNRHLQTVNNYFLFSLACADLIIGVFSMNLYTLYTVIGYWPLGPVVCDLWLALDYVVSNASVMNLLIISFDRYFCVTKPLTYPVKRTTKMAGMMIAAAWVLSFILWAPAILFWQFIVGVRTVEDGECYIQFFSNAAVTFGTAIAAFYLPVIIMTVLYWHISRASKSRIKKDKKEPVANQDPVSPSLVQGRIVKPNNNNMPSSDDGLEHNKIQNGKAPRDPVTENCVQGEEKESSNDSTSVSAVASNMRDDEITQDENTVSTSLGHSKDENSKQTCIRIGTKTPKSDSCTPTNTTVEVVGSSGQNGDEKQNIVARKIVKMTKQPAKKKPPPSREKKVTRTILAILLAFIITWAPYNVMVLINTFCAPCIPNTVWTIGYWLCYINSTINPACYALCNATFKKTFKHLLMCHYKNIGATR
# [12] = Area under curve value 24 hr after 2 mg/kg iv administration in monkeys; type: ADME, organism-based; parameters: time < 24 hr, dose 2 mg/kg, route intravenous; conditions: cercopithecidae, in vivo
# [13] = Area under curve value 24 hr after 2 mg/kg oral administration in monkeys; type: ADME, organism-based; parameters: time < 24 hr, dose 2 mg/kg, route oral; conditions: cercopithecidae, in vivo
# [14] = Bioavailability in monkey (dose 2 mg/kg); type: ADME, organism-based; conditions: cercopithecidae, in vivo
# [15] = Half-life 24 hr after 2 mg/kg iv administration in rats; type: ADME, organism-based; parameters: dose 2 mg/kg, route intravenous; conditions: rat, in vivo
# [16] = Cmax 24 hr after 2 mg/kg oral administration in monkeys; type: ADME, organism-based; parameters: dose 2 mg/kg, route oral; conditions: cercopithecidae, in vivo
# Rattus norvegicus [17] = assay: Area under curve value 24 hr after 2 mg/kg iv administration in rats; type: ADME, organism-based; parameters: time < 24 hr, dose 2 mg/kg, route intravenous; conditions: in vivo
# Rattus norvegicus [18] = assay: Area under curve value 24 hr after 2 mg/kg oral administration in rats; type: ADME, organism-based; parameters: time < 24 hr, dose 2 mg/kg, route oral; conditions: in vivo
# [19] = Cmax 24 hr after 2 mg/kg oral administration in rats; type: ADME, organism-based; parameters: dose 2 mg/kg, route oral; conditions: rat, in vivo
# Homo sapiens [20] = organism: Homo sapiens; assay: as §1; type: functional
# Homo sapiens [21] = organism: Homo sapiens; assay: as §2; type: functional
# Homo sapiens [22] = organism: Homo sapiens; assay: as §3; type: functional
# Homo sapiens [23] = organism: Homo sapiens; assay: as §4; type: functional
# Homo sapiens [24] = organism: Homo sapiens; assay: as §5; type: functional
# [25] = Half-life 24 hr after 2 mg/kg iv administration in monkeys; type: ADME, organism-based; parameters: dose 2 mg/kg, route intravenous; conditions: cercopithecidae, in vivo
# [26] = Bioavailability after administration of 2 mg/kg in rats; type: ADME, organism-based; conditions: rat, in vivo, read-out: Bioavailabiility
# [27] = Half-life 24 hr after 10 mg/kg iv administration in rats; type: ADME, organism-based; parameters: dose 10 mg/kg, route intravenous; conditions: rat, in vivo
# [28] = Bioavailability after administration of 10 mg/kg in rats; type: ADME, organism-based; conditions: rat, in vivo, read-out: Bioavailabiility
# Rattus norvegicus [29] = assay: Area under curve value 24 hr after 10 mg/kg iv administration in rats; type: ADME, organism-based; parameters: time < 24 hr, dose 10 mg/kg, route intravenous; conditions: in vivo
# Rattus norvegicus [30] = assay: Area under curve value 24 hr after 10 mg/kg oral administration in rats; type: ADME, organism-based; parameters: time < 24 hr, dose 10 mg/kg, route oral; conditions: in vivo
# [31] = Cmax 24 hr after 10 mg/kg oral administration in rats; type: ADME, organism-based; parameters: dose 10 mg/kg, route oral; conditions: rat, in vivo
AUC 0-6h (Rattus norvegicus [1]) [ng·h/mL],pKi [2],IC90 [4] [nM],IC90 [5] [nM],IC90 [6] [nM],IC90 [7] [nM],IC90 [8] [nM],pIC50 [9],pKi [10],pKi [11],Structure (SMILES),pKi [3],also measured
4600,5.22,–,–,–,–,–,9.46,8.96,5.32,CCC[C@@H](c1ccc(C(F)(F)F)cc1)N1CCN(C2(C)CCN(C(=O)c3c(C)ncnc3C)CC2)C[C@@H]1C,< 5.28,AUC 0-24h [12]: 2670 ng·h/mL; AUC 0-24h [13]: 1760 ng·h/mL; bioavailability [14]: 66%; half-life [15]: 930 min; Cmax [16]: 240 ng/mL; AUC 0-24h (Rattus norvegicus [17]): 4550 ng·h/mL; AUC 0-24h (Rattus norvegicus [18]): 3270 ng·h/mL; Cmax [19]: 311 ng/mL; IC90 (Homo sapiens [20]): 0.09 nM; IC90 (Homo sapiens [21]): 0.03 nM; IC90 (Homo sapiens [22]): 0.27 nM; IC90 (Homo sapiens [23]): 0.01 nM; IC90 (Homo sapiens [24]): 0.43 nM; half-life [25]: 378 min; bioavailability [26]: 72%
7310,5.41,16,21,18,19,1000,9.74,8.28,5.32,CC[C@@H](c1ccc(C(F)(F)F)cc1)N1CCN(C2(C)CCN(C(=O)c3c(C)ncnc3C)CC2)C[C@@H]1C,5.04,–
6900,< 5.00,1.8,2.8,4.9,3.3,10,9.34,–,< 5.00,COC[C@@H](c1ccc(C(F)(F)F)cc1)N1CCN(C2(C)CCN(C(=O)c3c(C)ncnc3C)CC2)C[C@@H]1C [VICRIVIROC],–,AUC 0-24h [12]: 2240 ng·h/mL; AUC 0-24h [13]: 1990 ng·h/mL; bioavailability [14]: 89%; half-life [27]: 480 min; Cmax [16]: 670 ng/mL; bioavailability [28]: 100%; AUC 0-24h (Rattus norvegicus [29]): 21000 ng·h/mL; AUC 0-24h (Rattus norvegicus [30]): 21000 ng·h/mL; Cmax [31]: 2300 ng/mL; half-life [25]: 210 min
5900,5.72,–,–,–,–,–,9.10,8.80,5.45,Cc1ncnc(C)c1C(=O)N1CCC(C)(N2CCN([C@@H](CC3CC3)c3ccc(C(F)(F)F)cc3)[C@@H](C)C2)CC1,–,–

# Continued, molecule first:
Structure (SMILES),AUC 0-6h (Rattus norvegicus [1]) [ng·h/mL],pKi [2],IC90 [4] [nM],IC90 [5] [nM],IC90 [6] [nM],IC90 [7] [nM],IC90 [8] [nM],pIC50 [9],pKi [10],pKi [11],pKi [3],also measured
Cc1ncnc(C)c1C(=O)N1CCC(C)(N2CCN([C@@H](C)c3ccc(C(F)(F)F)cc3)[C@@H](C)C2)CC1,6210,6.24,13,19,31,40,> 1000,9.41,–,–,6.15,–
Cc1ncnc(C)c1C(=O)N1CCC(C)(N2CCN([C@@H](Cc3ccccc3)c3ccc(C(F)(F)F)cc3)[C@@H](C)C2)CC1,2030,< 5.41,0.6,0.04,0.25,0.19,4,9.89,8.85,< 5.24,< 5.28,–
CCO/N=C(\c1ccc(Br)cc1)C1CCN(C2(C)CCN(C(=O)c3c(C)cc[n+]([O-])c3C)CC2)CC1 [ANCRIVIROC],–,–,43,25,10,19,400,–,–,–,–,–
Cc1ncnc(C)c1C(=O)N1CCC(C)(N2CCN([C@@H](CCC(F)(F)F)c3ccc(C(F)(F)F)cc3)[C@@H](C)C2)CC1,4600,< 5.43,–,–,–,–,–,8.84,–,< 5.17,–,–
